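A five-concentration, 48-hour dose response in 96-well plates underlies each endpoint, interpolated linearly between surrounding concentrations. At the GI50, growth is halved. The concentration for full growth arrest is given as TGI.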
Experiments:
Assay in all cases: inhibition of tumour cell growth, NCI panel, 48 h
HCT-116 colon = tested on: HCT-116 colon
SK-MEL-28 melanoma = tested on: SK-MEL-28 melanoma
T-47D breast = tested on: T-47D breast
SNB-75 CNS = tested on: SNB-75 CNS
MCF7 breast = tested on: MCF7 breast
EKVX NSCLC = tested on: EKVX NSCLC
K-562 leukemia = tested on: K-562 leukemia
ACHN renal = tested on: ACHN renal
MALME-3M melanoma = tested on: MALME-3M melanoma
DU-145 prostate = tested on: DU-145 prostate
PC-3 prostate = tested on: PC-3 prostate
MDA-MB-435 = tested on: MDA-MB-435
KM12 colon = tested on: KM12 colon
UO-31 renal = tested on: UO-31 renal
HS 578T breast = tested on: HS 578T breast
SNB-19 CNS = tested on: SNB-19 CNS
NCI-H23 lung = tested on: NCI-H23 lung
U251 CNS = tested on: U251 CNS
HCT-15 colon = tested on: HCT-15 colon
HOP-92 NSCLC = tested on: HOP-92 NSCLC
RPMI-8226 leukemia = tested on: RPMI-8226 leukemia
A498 renal = tested on: A498 renal
OVCAR-8 ovarian = tested on: OVCAR-8 ovarian
HOP-62 NSCLC = tested on: HOP-62 NSCLC
NCI-H522 lung = tested on: NCI-H522 lung
NCI/ADR-RES ovarian = tested on: NCI/ADR-RES ovarian
SF-268 CNS = tested on: SF-268 CNS
SW-620 colon = tested on: SW-620 colon
SN12C renal = tested on: SN12C renal

Q: How did the GI50 (HCT-116 colon) turn out when `N#Cc1cccc(/C(N)=N/C(N)=N/c2nc3ccccc3s2)c1` was run?
A: The GI50 was 487 nM.

Q: And the TGI (HCT-116 colon)?
A: The TGI was over 100000 nM.

Q: What about the GI50 (SK-MEL-28 melanoma) of the same molecule?
A: The GI50 was 5330 nM.

Q: And the TGI (SK-MEL-28 melanoma)?
A: The TGI was over 100000 nM.

Q: What about the GI50 (T-47D breast) of the same molecule?
A: The GI50 was 659 nM.

Q: What about the TGI (T-47D breast) of the same molecule?
A: The TGI was over 100000 nM.

Q: And the GI50 (SNB-75 CNS)?
A: Its GI50 is 213 nM.

Q: What about the TGI (SNB-75 CNS) of the same molecule?
A: Its TGI is 9330 nM.

Q: And the GI50 (MCF7 breast)?
A: Its GI50 is 427 nM.

Q: And the TGI (MCF7 breast)?
A: Its TGI is over 100000 nM.

Q: And the GI50 (EKVX NSCLC)?
A: The GI50 was 2410 nM.

Q: And the TGI (EKVX NSCLC)?
A: The TGI was over 100000 nM.

Q: What about the GI50 (K-562 leukemia) of the same molecule?
A: The GI50 was 316 nM.

Q: What about the TGI (K-562 leukemia) of the same molecule?
A: The TGI was over 100000 nM.

Q: What about the GI50 (ACHN renal) of the same molecule?
A: Its GI50 is 855 nM.

Q: What about the TGI (ACHN renal) of the same molecule?
A: The TGI was over 100000 nM.

Q: And the GI50 (MALME-3M melanoma)?
A: The GI50 was 1570 nM.

Q: And the TGI (MALME-3M melanoma)?
A: The TGI was over 66700 nM.

Q: And the GI50 (DU-145 prostate)?
A: Its GI50 is 1560 nM.

Q: And the TGI (DU-145 prostate)?
A: The TGI was over 100000 nM.

Q: What about the GI50 (PC-3 prostate) of the same molecule?
A: The GI50 was 840 nM.

Q: What about the TGI (PC-3 prostate) of the same molecule?
A: The TGI was over 100000 nM.

Q: And the GI50 (MDA-MB-435)?
A: The GI50 was 211 nM.

Q: And the TGI (MDA-MB-435)?
A: Its TGI is 776 nM.

Q: And the GI50 (KM12 colon)?
A: Its GI50 is 511 nM.

Q: What about the TGI (KM12 colon) of the same molecule?
A: Its TGI is over 100000 nM.

Q: What about the GI50 (UO-31 renal) of the same molecule?
A: The GI50 was 1810 nM.

Q: And the TGI (UO-31 renal)?
A: The TGI was over 100000 nM.

Q: And the GI50 (HS 578T breast)?
A: Its GI50 is 531 nM.

Q: And the TGI (HS 578T breast)?
A: The TGI was over 43300 nM.

Q: What about the GI50 (SNB-19 CNS) of the same molecule?
A: Its GI50 is 614 nM.

Q: What about the TGI (SNB-19 CNS) of the same molecule?
A: The TGI was over 72600 nM.

Q: What about the GI50 (NCI-H23 lung) of the same molecule?
A: Its GI50 is 1790 nM.

Q: And the TGI (NCI-H23 lung)?
A: Its TGI is over 100000 nM.

Q: And the GI50 (U251 CNS)?
A: Its GI50 is 591 nM.

Q: And the TGI (U251 CNS)?
A: Its TGI is over 54400 nM.

Q: What about the GI50 (HCT-15 colon) of the same molecule?
A: The GI50 was 443 nM.

Q: And the TGI (HCT-15 colon)?
A: The TGI was over 100000 nM.

Q: And the GI50 (HOP-92 NSCLC)?
A: Its GI50 is 2750 nM.

Q: What about the TGI (HOP-92 NSCLC) of the same molecule?
A: Its TGI is over 60600 nM.

Q: And the GI50 (RPMI-8226 leukemia)?
A: Its GI50 is 686 nM.

Q: What about the TGI (RPMI-8226 leukemia) of the same molecule?
A: Its TGI is over 100000 nM.

Q: And the GI50 (A498 renal)?
A: Its GI50 is 1130 nM.

Q: And the TGI (A498 renal)?
A: Its TGI is 11600 nM.

Q: And the GI50 (OVCAR-8 ovarian)?
A: The GI50 was 1590 nM.

Q: What about the TGI (OVCAR-8 ovarian) of the same molecule?
A: The TGI was over 100000 nM.

Q: And the GI50 (HOP-62 NSCLC)?
A: Its GI50 is 609 nM.

Q: And the TGI (HOP-62 NSCLC)?
A: The TGI was 18200 nM.

Q: What about the GI50 (NCI-H522 lung) of the same molecule?
A: The GI50 was 481 nM.

Q: What about the TGI (NCI-H522 lung) of the same molecule?
A: Its TGI is over 100000 nM.

Q: What about the GI50 (NCI/ADR-RES ovarian) of the same molecule?
A: Its GI50 is 437 nM.

Q: And the TGI (NCI/ADR-RES ovarian)?
A: The TGI was over 100000 nM.

Q: And the GI50 (SF-268 CNS)?
A: The GI50 was 1700 nM.

Q: What about the TGI (SF-268 CNS) of the same molecule?
A: The TGI was over 71700 nM.

Q: And the GI50 (SW-620 colon)?
A: The GI50 was 485 nM.

Q: And the TGI (SW-620 colon)?
A: Its TGI is over 100000 nM.

Q: And the GI50 (SN12C renal)?
A: Its GI50 is 1130 nM.
